The conditions of data set [1]: antihistamine, oral administration; cited from earlier work.
Data set [2] deals with tMCAO rats. Kind of data set: Therapeutic time window in focal cerebral ischemia-reperfusion injured rats. It is filed as in vivo, rat. As to conditions: tMCAO rats, 1 mg/kg, 5 mg/kg. Here is the method:
(§1) 1. In the test, transient middle cerebral artery occlusion (tMCAO) model of rats was adopted. The reperfusion was performed after focal cerebral ischemia for 2 hours so as to inspect therapeutic time window of pinocembrin after focal cerebral ischemia. The rats were administered by pinocembrin racemate (1 mg/kg, 5 mg/kg, intravenous injection) after reperfusion 1 hour, 4 hours and 6 hours (i.e., ischemia 3 hour, 6 hours and 8 hours). (R)-pinocembrin and (S)-pinocembrin (1 mg/kg, 5 mg/kg, intravenous injection) were administered after reperfusion 1 hour and 4 hours (i.e., ischemia 3 hour and 6 hours). The therapeutic time windows of these drugs in focal cerebral ischemia were assessed by studying their effects to neurological symptom scores, infarct sizes and brain water contents during 24 hours after tMCAO.
(§2) 2.4 Experimental Grouping and Administration • Sham operation group (intravenous injection of normal saline after 3 hours of ischemia); • Model group (intravenous injection of 50 mg/kg hydroxypropyl β-cyclodextrin after 3 hours of ischemia); • Nimodipine group (1 mg/kg, administered after 3 hours of ischemia); • Pinocembrin racemate group (1 mg/kg, 5 mg/kg, administered after 3, 6 and 8 hours of ischemia); • (R)-pinocembrin group (1 mg/kg, 5 mg/kg, administered after 3 and 6 hours of ischemia); • (S)-pinocembrin group (1 mg/kg, 5 mg/kg, administered after 3 and 6 hours of ischemia).
(§3) First administration was performed by intravenous injection, and intraperitoneal injection was carried out once 12 hours later with a dose 1.5 times of that for intravenous injection.

A short description of another data set: in vivo. As to conditions: SD, rat, iv.
The subject of data set [3] is tMCAO rats. Kind of data set: Neurobehavioral examination (Bederson's score), tMCAO time window study. Conditions: 2 hours ischemia and 24 hours reperfusion. It is filed as in vivo, rat. As for the experimental part: as §1
The CCA and ICA were clipped with artery clips. Two No. 0 surgery lines were litigated on the ECA distal end with 2-3 mm spacing and then the vascular between the two surgery lines was cut. The distal end of ECA was pulled until it formed a straight line with the ICA. An incision was cut on ECA and a nylon line was inserted through ECA into ICA. After the artery clip was loosen, the nylon line was pushed on into the brain through ICA and inserted in depth of 18.5±0.5 mm when resistance was felt slightly. The nylon line reached a smaller anterior cerebral artery through the beginning of MCA and then the blood flow obstruction in right MCA was established. the animals were kept in anesthesia during the obstruction. After 2 hours of obstruction, the nylon line was gently pulled out to ECA stub to form reperfusion. During the surgery process, the animals were irradiated by table lamp of 100 W to maintain the body temperature. The room temperature was kept in range of 23-25° C.
as §2, §3
Neurobehavioral examination was performed respectively when the animals were awake after surgery and before the animals were put to death. Bederson's score was adopted (see details in Example 2, 1. Neurobehavioral Examination).

The next data set relates to plasma ET-1. Description: Plasma ET-1 (radioimmunoassay) in SHRSP. The data set is classed as in vivo, rat. Further details: ET-1 content: unit not given here. As to conditions: SHRSP rats; for ET-1 content: plasma. As for the experimental part: 5) Blood of 2 mL was dropped rapidly in a cuvette with 30 μL 7.5% EDTA-2Na and 40 μL aprotinin and mixed. After centrifuged for 5 min at 3000 rpm, plasma ET-1 in liquid supernatant was determined by isotope radioimmunoassay.

The test system of data set [4] is tMCAO rats. Kind of data set: Brain water content, tMCAO time window study. The data set is classed as in vivo, rat. As to conditions: 2 hours ischemia and 24 hours reperfusion. Here is the method: as §1, §2, §3
The wet weight of each animal's brain was weighted before sliced. After staining, the brain slices were dried at 105° C. for 24 hours, and the dry weight of each animal's brain was weighted. The brain water contents of animals of various groups were compared. Brain water content=(brain wet weight−brain dry weight)/brain wet weight×100%.

A further data set concerns plasma fibrinogen. Description: Plasma fibrinogen assay (ELISA) in SHRSP. Conditions: SHRSP rats. The data set is classed as in vivo, rat. Also on record: Plasma fibrinogen: unit not given here. As for the experimental part: The mixture was centrifuged for 15 min at 3000 rpm and plasma fibrinogen in liquid supernatant was determined by euzymelinked immunosorbent assay (ELISA).
For orientation: In an ELISA, binding on a coated surface is turned into a signal by an enzyme label.

Data set [5] has as its system tMCAO rats. Kind of data set: Infarct volume (TTC), tMCAO time window study. It is filed as in vivo, rat. Conditions: 2 hours ischemia and 24 hours reperfusion. Here is the method:
as §1, §2, §3
After neurobehavioral scoring, the rats were put to death by decollation and their brain tissues were taken out quickly and put into a refrigerator of −20° C. 10 min later, the brain tissues were moved to an environment of room temperature. After the olfactory bulb, cerebellar and lower brain stem were resected, the brain tissue was cut into six continuous coronal slices with an interval of 2 mm. Then the brain slices were quickly put into 5 ml solution containing 2% TTC and incubated at a constant temperature of 37° C. and in a condition of darkness for 30 min. During the time, the brain slices were tipped every 5 min. […] Every group of brain slices were put in order and photographed. The photographs were processed by an image analysis system and the infarct areas in each slice were calculated. The infarct volume of each slice was calculated via multiplying the infarct area by thickness of slice (2 mm), and the infarct volume was the sum of infarct volumes of all slices. The infarct volume percentage was expressed as: sick-side infarct volume/total sick-side brain volume.

For the next data set, the system named is SD rats. Kind of data set: Acute toxicity, single intravenous injection. As to conditions: single intravenous injection in SD rats.
The subject of a further data set is MCAO rats. Kind of data set: Nissl staining of hippocampal neurons, MCAO. Conditions: hippocampus, cerebral ischemia 24 hours. It is filed as in vivo, rat. Here is the method: After cerebral ischemia for 24 hours, the rats were anesthetized by intraperitoneal injection of 10% Chloral hydrate. After perfused via heart with heparinized normal saline for 10 min and 4% paraformaldehyde for 30 min, the brain tissue was taken out and moved in 4% paraformaldehyde to fix, then cut into coronal sections (6 μm) by a frozen section machine, and one section was taken out in every 20 sections to stain. The stained sections were expanded on a slide glass treated by polylysine, and then preserved in a refrigerator at −40° C.
Nissel staining: (1) the frozen section was taken out from the refrigerator and dried in room temperature; (2) put into acetone to fix for 30 min and washed by PBS for 3 times, 3 min every time; (3) dipped for 20-30 min in toluidine blue dye and then washed by water for 15 min; (4) dehydrated by ethanol in gradient manner and vitrified by xylene and mounted by a neutral gum; (5) observed under a light microscope and photographed for analysis; (6) 4 frozen sections in roughly same position for each rat were taken out and 5 vision fields in hippocampus for each section were observed under 200× light microscope (totally 20 visions per rat). The cells in vision fields were counted. The averages of ratios of the numbers in the administration groups to the number in the model group were calculated for statistical analysis.

Where [6] appears, read: initially injected after 3 hours of ischemia.
Where [7] appears, read: initially injected after 6 hours of ischemia.

Consider `CC(CN1c2ccccc2Sc2cccnc21)N(C)C` (racemic) [isothipendyl racemate, isothipendyl], for which, in [1], the “efficacy relative to (+)-isomer” value is 2.5 times and the “efficacy relative to (−)-isomer” value was 1.4 times.

Regarding `O=C1C[C@@H](c2ccccc2)Oc2cc(O)cc(O)c21` [(S)-pinocembrin, reference compound], the “effect on neurobehavioral injury, infarct volume and cerebral edema” value with tMCAO rats [2] (setting [6]) is given as “significant effects”; in the data set on tMCAO rats [2] (setting [7]), “not effective”. The same compound registered an LD50 in “in vivo” of 375 mg/kg. Moreover, the Neurobehavioral value is recorded as 1.29 ± 0.72 in the data set on tMCAO rats [3] (1 mg/kg, 3 h); 1.79 ± 0.63 in the data set with tMCAO rats [3] (1 mg/kg, 6 h); 1.59 ± 0.77 with tMCAO rats [3] (5 mg/kg, 3 h); 1.77 ± 0.70 with tMCAO rats [3] (5 mg/kg, 6 h). Also, the “effect on plasma ET-1 content” value with plasma ET-1 (compared with the model group) is listed as “no activity”. Further, the ET-1 content in the data set with plasma ET-1 (3 mg/kg) was found to be 243 ± 19.5; in the data set with plasma ET-1 (10 mg/kg), 240 ± 16.8; in the data set on plasma ET-1 (30 mg/kg), 240.8 ± 24.3. The “Brain water content (%)” value in the data set on tMCAO rats [4] (1 mg/kg, 3 h) is listed as 81.95 ± 1.00 %; with tMCAO rats [4] (1 mg/kg, 6 h), 82.96 ± 0.98%; with tMCAO rats [4] (5 mg/kg, 3 h), 81.87 ± 1.12 %; in the data set with tMCAO rats [4] (5 mg/kg, 6 h), 83.37 ± 1.27%. For the same compound, the Plasma fibrinogen with plasma fibrinogen (3 mg/kg) came out at 3.00 ± 0.32; with plasma fibrinogen (10 mg/kg), 2.99 ± 0.61; with plasma fibrinogen (30 mg/kg), 2.81 ± 0.57. For the same compound, the “effect on content of plasma fibrinogen” value in the data set on plasma fibrinogen (compared with the model group) is reported as “no activity”. The “Infarct percentage (%)” value is reported as 15.32 ± 7.98 % in the data set on tMCAO rats [5] (1 mg/kg, 3 h); 28.06 ± 12.98% in the data set with tMCAO rats [5] (1 mg/kg, 6 h); 15.78 ± 7.28 % with tMCAO rats [5] (5 mg/kg, 3 h); 25.97 ± 12.75% with tMCAO rats [5] (5 mg/kg, 6 h).

With `O=C1C[C@H](c2ccccc2)Oc2cc(O)cc(O)c21` [(R)-pinocembrin], the “effect on neurobehavioral injury, infarct volume and cerebral edema” value in the data set on tMCAO rats [2] (setting [6]) is on record as “significant effects”; in the data set on tMCAO rats [2] (setting [7]), “not effective”. In addition, the Neurobehavioral value in the data set on tMCAO rats [3] (1 mg/kg, 3 h) was found to be 1.42 ± 0.82; in the data set on tMCAO rats [3] (1 mg/kg, 6 h) it was 1.86 ± 0.57; with tMCAO rats [3] (5 mg/kg, 3 h), 1.39 ± 0.72; in the data set on tMCAO rats [3] (5 mg/kg, 6 h) it was 1.83 ± 0.49. Moreover, the ET-1 content in the data set with plasma ET-1 (3 mg/kg) stood at 235.4 ± 35.2; in the data set on plasma ET-1 (10 mg/kg) it was 228.4 ± 16.9; in the data set with plasma ET-1 (30 mg/kg), 198.1 ± 35.4. Moreover, the “Brain water content (%)” value in the data set with tMCAO rats [4] (1 mg/kg, 3 h) is given as 82.18 ± 0.98 %; in the data set with tMCAO rats [4] (1 mg/kg, 6 h), 83.36 ± 1.12%; in the data set with tMCAO rats [4] (5 mg/kg, 3 h), 81.20 ± 1.03 %; in the data set with tMCAO rats [4] (5 mg/kg, 6 h), 83.77 ± 1.07%. Besides, the values for the Plasma fibrinogen in the data set with plasma fibrinogen (3 mg/kg), in the data set with plasma fibrinogen (10 mg/kg) and in the data set on plasma fibrinogen (30 mg/kg) were 2.99 ± 0.13, 2.83 ± 0.18 and 2.74 ± 0.47, respectively. Besides, in the data set on SD rats, the LD50 is listed as 347.8 (257.4˜466.3) mg/kg. The “Infarct percentage (%)” value in the data set with tMCAO rats [5] (1 mg/kg, 3 h) is 15.69 ± 7.82 %; with tMCAO rats [5] (1 mg/kg, 6 h), 26.33 ± 12.67%; in the data set with tMCAO rats [5] (5 mg/kg, 3 h), 15.66 ± 7.88 %; in the data set with tMCAO rats [5] (5 mg/kg, 6 h), 25.89 ± 13.57%.

With pinocembrin racemate, the entries for the “increase of nerve cells in comparison with the model group” value in the data set on MCAO rats (3 mg/kg), in the data set with MCAO rats (10 mg/kg) and with MCAO rats (30 mg/kg) were 11.5±8.9%, 36.8±4.9% and 51.7±6.6%, respectively.
